Reference: BindingDB's records for patent US20240400579 (Genentech, 2024)

Target: T1, 3-beta-hydroxysteroid-Delta(8),Delta(7)-isomerase (Homo sapiens, UniProt Q15125)
Assay: Determination of Binding Affinity to EBP
Method: This binding solution was centrifuged at 400 g for 5 minutes to collect the bead/membrane mixture. After re-suspending the pellet in binding buffer at the same calculated volume with 0.01% BSA (Sigma A1933), the bead/membrane mixture was added in 384-well low-binding surface plate (PerkinElmer Cat #6057480) at 25 i/well. Radioligand at different concentrations with and without the non-radio-labeled same ligand 5 uM (for nonspecific and total signal, respectively) was added to bring final volume to 50 i/well with DMSO concentration at 0.1%. At equilibrium (3 hours after ligand addition), radiometric signal CPM was counted by using a Microbeta2 microplate counter (Perkinelmer).

T1 sequence (Q15125 whole entry): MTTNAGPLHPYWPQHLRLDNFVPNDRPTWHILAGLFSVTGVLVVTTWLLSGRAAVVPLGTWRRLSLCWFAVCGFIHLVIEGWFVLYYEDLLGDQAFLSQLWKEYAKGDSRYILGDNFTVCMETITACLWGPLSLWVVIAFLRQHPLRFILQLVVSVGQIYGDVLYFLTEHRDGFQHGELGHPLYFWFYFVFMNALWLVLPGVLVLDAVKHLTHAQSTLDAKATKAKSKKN

Ki [nM]	SMILES
56	CC(C)(Cc1ccc(C(F)(F)F)cc1)CN1CCC2(C1)CS(=O)(=O)C2 [US20240400579, Example 125]

Target: T1, 3-beta-hydroxysteroid-Delta(8),Delta(7)-isomerase
Assay: Determination of Binding Affinity to EBP-7-Dehydrocholesterol Reductase
Method: Compounds were prepared in a 96-well U bottom plate using an Echo550 machine and 10 mM compound DMSO stock solution, followed by an 8-dose 5-fold serial dilutions protocol with final testing compound concentration ranging from 0.06 to 5000 nM, with DMSO back fill to 100 nL/well and n=2. […] The UniFilter-96 GF/B plates were pre-treated by adding 50 μl/well of 0.3% (v/v) PEI to UniFilter-96 GF/B plates. The plates were sealed and incubated at 4° C. for 3 hrs. Then, the plates were washed with ice-cold assay buffer 3 times. The radioligand binding assay was prepared by adding assay buffer diluted hEBP-DHCR7 membrane at 66.7 μg/ml x 150 μl/well into the 96-well compound plate to reach 10 μg membrane per well. Then, the assay buffer diluted [3H]-Compound 118A* was added at 25 nM×50 μl/well. Following this, the plate was centrifuged at 1000 rpm for 30 secs. The plate was then sealed and agitated at 600 rpm at 22° C. for 5 min, and then incubated at 22° C. for 3 hrs. The incubation was stopped by transferring the binding solution to the pre-treated UniFilter-96 GF/B plate, vacuum filtrated, and then washed four times with ice-cold assay buffer. Following this, the plates were dried at 37° C. for 45 min. The plates were then sealed at the bottom. 40 μl/well of scintillation cocktail was added to the plates. A MicroBeta2 microplate counter was then used to read the plate and analyze the data. For reference and test compounds, the results are expressed as % Inhibition, using the normalization equation: N=100-100×(U−C2)/(C1−C2), where U is the unknown value, C1 is the average of high controls, and C2 is the average value of low controls. The IC50 was determined by fitting percentage of inhibition as a function of compound concentrations with Hill equation using XLfit.

Ki [nM]	SMILES
9.45	O=S1(=O)CC2(CCN(CCCc3ccc(C(F)(F)F)cc3)C2)C1 [US20240400579, Example 113]
25.3	C[C@@H](Cc1ccc([C@@H]2CCCCO2)c(Cl)c1)CN1CCC2(C1)CS(=O)(=O)C2 [US20240400579, Example 124B]
18.5	C[C@H](Cc1ccc(C2CCCCO2)c(Cl)c1)CN1CCC2(C1)CS(=O)(=O)C2 (stereo partly specified) [US20240400579, Example 124A]
4.02	CC(C)(Cc1ccc(C(F)(F)F)cc1)CN1CCC2(C1)CS(=O)(=O)C2 [US20240400579, Example 125]
13.1	O=S1(=O)CC2(CCN(CCOc3cnc(C(F)(F)F)c(Cl)c3)CC2)C1 [US20240400579, Example 242]
